Laboratory results taken from patent US20090098050A1, “CALCIUM BINDING PEPTIDES” (THE REGENTS OF THE UNVERSITY OF CALIFORNIA, priority 2005, published 2009).

Columns and labels:
[1] = Binding of fluorescein-labeled peptides to hydroxyapatite nanocrystals (Langmuir isotherm); details: fluorescein-labeled peptide 0-100 μM, 0.3 mg hydroxyapatite, ten minutes, Langmuir fit
Method: FIG. 1: Binding affinities of DSS and DSS variant peptides for hydroxyapatite and tooth surfaces. A-C. Fluorescein-labeled peptides at concentrations ranging from 0-100 μM were incubated with 0.3 mg of hydroxyapatite nanocrystals (specific surface area=100 m^2/g) for ten minutes, followed by removal of the hydroxyapatite by centrifugation. The amount of peptide in the mixture before and after hydroxyapatite removal was determined by Abs480. Isotherms were plotted and fit to the Langmuir equation to extract values for KA, a constant reflecting the affinity of the peptide for the hydroxyapatite surface. D. Sagitally sectioned human teeth were incubated with 12.5 μM 5(6) carboxyfluorescein-labeled 6DSS peptide for ten minutes, followed by rinsing. Peptide binding to tooth surfaces was visualized by Confocal Laser Scanning Microscopy (CLSM) using blue laser illumination (λA=488 nm) and a FITC emission filter. Left side, light colored region: dentin. Right side, dark colored region: enamel.
Four DSS peptides containing two (2DSS, SEQ ID NO:12), four (4DSS, SEQ ID NO:13), six (6DSS, SEQ ID NO:14), or eight(8DSS, SEQ ID NO:15) Asp-Ser-Ser (DSS) repeats were generated. Peptides were labeled with fluorescein, and various concentrations of the labeled peptides (0-100 μM) were mixed with a fixed amount (0.3 mg) of hydroxyapatite nanocrystals having a specific surface area of 100 m^2/g (Berkeley Advanced Biomaterials, Inc.). Samples were incubated for ten minutes, followed by removal of the hydroxyapatite by centrifugation. The amount of peptide in the mixture was measured both before and after hydroxyapatite removal by spectroscopic absorbance at 480 nm (the peak absorbance of the fluorescein label). The amount of peptide bound was calculated by comparing the ratio of the final (Af) and initial (Ai) absorbances to the initial concentration (P0) [Pbound=[…]]. Plots were generated illustrating the amount of peptide bound per m^2 of hydroxyapatite surface area versus concentration of unbound peptide at equilibrium. The resulting isotherms were fit to the Langmuir isotherm (x/m=(KANMaxCeq)/(1+KACeq)) (Calis 1995), which describes the binding activity of a molecule in terms of a combination of binding affinity (KA) and avidity (NMax). KA represents the affinity constant of the peptide for the hydroxyapatite surface. In this equation, x/m represents the molar amount of peptide bound per unit of hydroxyapatite surface area, NMax represents the maximum surface concentration (mol/m^2), and Ceq represents the molar concentration of unbound peptide at equilibrium. The Langmuir isotherm describes the binding of molecules to surfaces with the conditions that 1) all binding sites have the same affinity for the peptide, and 2) the peptide will form a monolayer on the surface but cannot accumulate to higher levels. The excellent fit of the Langmuir isotherm to the experimental data validates these conditions, and these affinity constants were used for comparisons between peptides.

[2] = Tissue specific binding of DSS peptides and variants in human teeth (CLSM); details: 12.5 μM labeled peptide
Method: FIG. 8: Fluorescence micrographs showing tissue specificity in the binding of DSS peptides and variants. Adult human teeth were exposed to 12.5 μM 5(6)-carboxyfluorescein-labeled peptide without demineralization, washed extensively, and imaged by CLSM. For each section, multiple scans were collected and assembled in an automated mode to generate panels of images representing an area of 13×13 mm, sufficient in most cases to encompass the whole section. The peptides used for each section are labeled beneath each panel, and within each panel the tooth is oriented with the root toward the top of the image and the crown toward the bottom. Tissue layers are labeled as follows: RTD=Root Tip Dentin; CPD=Circumpulpal Dentin; MD=Mantle Dentin; P=Pulp Cavity Wall; DEJ=Dentin-Enamel Junction; E=Enamel; BE=Basal Enamel; CE=Cortical Enamel; CL=Carious Lesion; PB=Periodontal Bone.
In order to investigate the tissue specificity of DSS peptide binding to tooth tissue, sections of human teeth were exposed to DSS peptides and variants, then imaged by CLSM as described in Example 2. The peptides utilized for these experiments were 8DSS, 8ASS, 8DAA, 8NAA, 4DSS, 4ESS, 4NSS, 4DTT, 4ETT, 4NTT, and 6DSS. Sagittal sections of human teeth extracted during normal clinical practice were polished and then incubated for ten minutes in a solution of the appropriate 5(6) carboxyfluorescein-labeled peptide (12.5 μM) containing 10 mM NaCl and 50 mM HEPES, pH 7.0. Control samples were prepared without peptide. Samples were washed extensively after treatment and imaged by CLSM using blue laser illumination (λ=488 nm) and a FITC emission filter, with identical camera and microscope settings for each sample. For each section, multiple scans were collected and assembled in an automated mode to generate panels of images representing an area of 13×13 mm, sufficient in most cases to encompass the whole section. […] Significant binding was also seen to the edges of the pulp cavity.

[3] = Remineralization of demineralized dentin surfaces with Quell Desensitizer (SEM); parameters: species or system human; details: 12.5 μM peptide one hour, then Quell Desensitizer 15 minutes
Method: FIG. 4: Remineralization of tooth surfaces with DSS peptides. Extracted human teeth were sagitally sectioned and demineralized with 19% EDTA gel for 1 hour, followed by immersion in deionized water and ultrasonication to remove excess debris. Samples were treated as indicated, then imaged by Scanning Electron Microscopy. Scale bars=50 μm. A. Demineralized control samples. B. Treated with 8DSS for 1 hour, rinsed, and remineralized using Quell Desensitizer. C. Treated with buffer only, remineralized using Quell Desensitizer. D. No treatment, remineralized using Quell Desensitizer. Extracted human teeth were sagitally sectioned (Accutom-50, CA-231 diamond blade) and demineralized with 19% EthyleneDiaminoTetraAcetic acid (EDTA) gel for one hour, followed by immersion in deionized water and ultrasonication to remove excess debris. Samples were treated with 12.5 μM 8DSS peptide in 50 mM HEPES buffer (pH 7.0), buffer only (no peptide), or left untreated. After one hour, samples were remineralized for 15 minutes with Quell Desensitizer (Pentron technologies, LLC), a remineralization solution consisting of aqueous solutions of calcium chloride and potassium phosphate. Samples were rinsed thoroughly prior to imaging by scanning electron microscopy (SEM).

Question: Which “KA, affinity constant of the peptide for the hydroxyapatite surface” value [1] does the source give for “8DSS: peptide containing eight Asp-Ser-Ser (DSS) repeats, SEQ ID NO:15 (DSSDSSDSSDSSDSSDSSDSSDSS; calcium binding peptide containing eight DSS repeats, 8DSS)” here?
Answer: 300,000 M^−1

Question: What about the “Tissue binding pattern in healthy tooth section” value ([2]; nondemineralized teeth) of the same substance?
Answer: bound primarily to the mantle dentin

Question: And the “Level of binding (staining) to tooth surfaces” value ([2]; ten minutes, identical settings)?
Answer: greatest levels of staining

Question: What about the “Mineral precipitate accumulation on demineralized dentin” value [3] of the same substance?
Answer: accumulated a continuous layer of calcium phosphate precipitate, fully occluding the dentinal tubules
